The values below come from EP1683523A1, “2-Phenylquinoxalines as inhibitors for MPP1” (MAX-PLANCK-GESELLSCHAFT ZUR FÖRDERUNG DER WISSENSCHAFTEN …, priority 2005, dated 2006).

SMILES strings stand for the structures.

For test [1], the system named is BSC-1 (African green monkey) cells. In words: Cellular phenotype: count of binucleated cells. The test is classed as cell-based. As to conditions: Chlorocebus sabaeus; synchronized BSC-1 cells, released from thymidine-block for three hours, treated for 18 hours; at least 200 cells counted per concentration; read-out: EC50, induction of a binucleate phenotype in BSC-1. How it is done:
Concerning the study the function of MPP1 in living cells, it was tested whether 5-chloro-2-(3,4-dichlorophenyl)-7-(trifluoromethyl)quinoxaline induces a phenotype similar to the one obtained by RNAi-mediated depletion of MPP1. For these studies we treated synchronized BSC-1 (African green monkey) cells with 5-chloro-2-(3,4-dichlorophenyl)-7-(trifluoromethyl)quinoxaline or DMSO as a solvent control.
BSC-1 cells were released from thymidine-block for three hours and then treated with 50µM or the indicated concentrations of 5-chloro-2-(3,4-dichlorophenyl)-7-(trifluoromethyl)quinoxaline for 18 hours. Treated cells were fixed with formaledehyde-containing buffer and the DNA and microtubule cytoskeleton were visualized with Hoechst and FITC-labled anti-tubulin antibody, respectively. The number of binucleated cells was determined by manual counting of at least 200 cells per concentration.

In another test the target is T1, Mklp2 (Homo sapiens, UniProt O95235).
T1 sequence (O95235 1-890): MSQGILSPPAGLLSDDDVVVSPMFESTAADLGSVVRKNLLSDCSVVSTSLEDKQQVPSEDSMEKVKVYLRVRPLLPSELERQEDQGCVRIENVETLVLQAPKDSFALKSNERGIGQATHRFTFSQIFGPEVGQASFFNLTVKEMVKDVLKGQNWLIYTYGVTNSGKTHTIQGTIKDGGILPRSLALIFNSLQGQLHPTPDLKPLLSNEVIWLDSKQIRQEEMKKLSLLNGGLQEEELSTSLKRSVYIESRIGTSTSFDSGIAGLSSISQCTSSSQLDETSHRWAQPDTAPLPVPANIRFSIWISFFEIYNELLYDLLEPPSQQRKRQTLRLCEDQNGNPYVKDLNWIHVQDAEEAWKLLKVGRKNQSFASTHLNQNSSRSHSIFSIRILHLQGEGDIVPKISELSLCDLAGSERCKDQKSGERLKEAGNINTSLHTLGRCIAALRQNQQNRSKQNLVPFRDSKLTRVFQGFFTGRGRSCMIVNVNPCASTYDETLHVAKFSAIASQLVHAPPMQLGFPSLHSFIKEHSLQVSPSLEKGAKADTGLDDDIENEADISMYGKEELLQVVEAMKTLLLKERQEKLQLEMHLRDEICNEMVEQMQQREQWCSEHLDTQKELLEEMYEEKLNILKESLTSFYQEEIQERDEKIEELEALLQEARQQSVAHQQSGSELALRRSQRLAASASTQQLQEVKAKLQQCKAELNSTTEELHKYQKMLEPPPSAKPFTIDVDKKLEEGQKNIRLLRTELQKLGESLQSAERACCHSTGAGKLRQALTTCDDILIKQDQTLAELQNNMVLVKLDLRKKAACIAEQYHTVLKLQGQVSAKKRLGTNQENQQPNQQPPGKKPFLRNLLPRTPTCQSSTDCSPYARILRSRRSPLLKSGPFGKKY
Briefly: Malachite-green in vitro microtubule-stimulated ATPase assay (specificity). The test is classed as biochemical. The following applies: Fig. 2. On the procedure:
(§1) The specificity of 5-chloro-2-(3,4-dichlorophenyl)-7-(trifluoromethyl)quinoxaline was determined by measuring its effect on the microtubule-stimulated in vitro ATPase activities of the kinesins Eg5, Kif4, Mklp1, and Mklp2.

Another test concerns the target T2, Kif4 (Homo sapiens, UniProt O95239).
T2 sequence (O95239 1-1232): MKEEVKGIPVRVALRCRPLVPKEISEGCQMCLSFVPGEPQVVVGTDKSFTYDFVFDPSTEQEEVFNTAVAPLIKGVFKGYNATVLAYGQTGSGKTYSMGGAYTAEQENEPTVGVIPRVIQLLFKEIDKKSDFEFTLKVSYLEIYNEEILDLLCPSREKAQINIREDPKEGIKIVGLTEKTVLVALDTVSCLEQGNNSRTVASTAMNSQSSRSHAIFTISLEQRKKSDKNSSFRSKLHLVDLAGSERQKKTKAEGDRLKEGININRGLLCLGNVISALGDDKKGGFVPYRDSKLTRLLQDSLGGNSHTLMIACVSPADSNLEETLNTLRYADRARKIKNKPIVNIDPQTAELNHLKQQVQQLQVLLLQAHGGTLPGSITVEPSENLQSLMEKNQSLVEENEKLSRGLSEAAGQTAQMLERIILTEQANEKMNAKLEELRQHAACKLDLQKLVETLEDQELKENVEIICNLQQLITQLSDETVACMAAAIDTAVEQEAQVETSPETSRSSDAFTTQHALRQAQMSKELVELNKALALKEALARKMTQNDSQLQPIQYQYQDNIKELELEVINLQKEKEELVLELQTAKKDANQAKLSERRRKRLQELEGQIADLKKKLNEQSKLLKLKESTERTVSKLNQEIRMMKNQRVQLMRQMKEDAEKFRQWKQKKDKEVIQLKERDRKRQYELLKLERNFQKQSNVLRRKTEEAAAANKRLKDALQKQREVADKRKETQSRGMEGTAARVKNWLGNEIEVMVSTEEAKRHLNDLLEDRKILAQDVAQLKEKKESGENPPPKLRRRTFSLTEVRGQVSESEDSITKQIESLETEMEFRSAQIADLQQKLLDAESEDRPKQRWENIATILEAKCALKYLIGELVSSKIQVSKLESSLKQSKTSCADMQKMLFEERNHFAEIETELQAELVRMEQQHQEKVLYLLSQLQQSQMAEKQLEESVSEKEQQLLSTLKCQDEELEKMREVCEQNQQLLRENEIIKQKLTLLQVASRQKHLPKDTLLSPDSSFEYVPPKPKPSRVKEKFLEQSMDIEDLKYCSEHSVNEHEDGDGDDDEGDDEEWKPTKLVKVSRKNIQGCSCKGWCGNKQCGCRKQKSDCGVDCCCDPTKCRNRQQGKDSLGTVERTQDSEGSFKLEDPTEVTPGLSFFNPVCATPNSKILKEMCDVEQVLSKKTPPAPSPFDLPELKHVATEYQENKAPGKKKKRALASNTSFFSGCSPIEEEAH
The test is described as above. The test is classed as biochemical. As to conditions: Fig. 2. How it is done:
as §1

Another test concerns the target T3, Eg5 (Homo sapiens, UniProt P52732).
T3 sequence (P52732 1-1056): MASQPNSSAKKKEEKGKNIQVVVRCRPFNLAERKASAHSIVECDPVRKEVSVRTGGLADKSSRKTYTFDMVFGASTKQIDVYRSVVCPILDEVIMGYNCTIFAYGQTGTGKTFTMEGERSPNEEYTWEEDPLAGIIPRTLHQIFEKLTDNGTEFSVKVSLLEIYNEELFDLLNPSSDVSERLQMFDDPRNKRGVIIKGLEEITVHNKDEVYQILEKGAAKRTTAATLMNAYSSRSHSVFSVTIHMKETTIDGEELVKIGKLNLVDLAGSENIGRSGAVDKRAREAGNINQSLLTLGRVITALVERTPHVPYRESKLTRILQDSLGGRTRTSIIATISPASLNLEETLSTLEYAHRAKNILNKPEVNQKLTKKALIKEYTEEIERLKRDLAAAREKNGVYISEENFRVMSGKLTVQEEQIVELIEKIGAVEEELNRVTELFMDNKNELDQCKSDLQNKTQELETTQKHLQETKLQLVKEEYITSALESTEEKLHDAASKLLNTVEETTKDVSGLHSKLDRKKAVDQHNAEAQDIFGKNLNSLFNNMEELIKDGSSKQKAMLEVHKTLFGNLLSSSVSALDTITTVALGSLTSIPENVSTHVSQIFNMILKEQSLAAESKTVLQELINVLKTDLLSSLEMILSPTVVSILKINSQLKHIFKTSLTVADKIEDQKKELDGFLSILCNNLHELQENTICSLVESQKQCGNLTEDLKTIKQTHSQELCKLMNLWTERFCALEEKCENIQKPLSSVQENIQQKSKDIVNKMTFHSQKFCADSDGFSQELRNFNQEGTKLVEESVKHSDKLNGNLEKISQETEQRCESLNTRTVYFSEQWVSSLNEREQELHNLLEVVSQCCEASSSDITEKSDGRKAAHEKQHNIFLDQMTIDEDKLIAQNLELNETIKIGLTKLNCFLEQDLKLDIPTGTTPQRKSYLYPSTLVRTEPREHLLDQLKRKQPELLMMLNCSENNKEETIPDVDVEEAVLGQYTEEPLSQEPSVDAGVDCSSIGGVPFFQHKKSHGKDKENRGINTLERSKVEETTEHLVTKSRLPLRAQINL
Described as above. The test is classed as biochemical. As to conditions: Fig. 2. On the procedure:
as §1

The target in the next test is T4, Mklp1 (Homo sapiens, UniProt Q02241).
T4 sequence (Q02241 1-960): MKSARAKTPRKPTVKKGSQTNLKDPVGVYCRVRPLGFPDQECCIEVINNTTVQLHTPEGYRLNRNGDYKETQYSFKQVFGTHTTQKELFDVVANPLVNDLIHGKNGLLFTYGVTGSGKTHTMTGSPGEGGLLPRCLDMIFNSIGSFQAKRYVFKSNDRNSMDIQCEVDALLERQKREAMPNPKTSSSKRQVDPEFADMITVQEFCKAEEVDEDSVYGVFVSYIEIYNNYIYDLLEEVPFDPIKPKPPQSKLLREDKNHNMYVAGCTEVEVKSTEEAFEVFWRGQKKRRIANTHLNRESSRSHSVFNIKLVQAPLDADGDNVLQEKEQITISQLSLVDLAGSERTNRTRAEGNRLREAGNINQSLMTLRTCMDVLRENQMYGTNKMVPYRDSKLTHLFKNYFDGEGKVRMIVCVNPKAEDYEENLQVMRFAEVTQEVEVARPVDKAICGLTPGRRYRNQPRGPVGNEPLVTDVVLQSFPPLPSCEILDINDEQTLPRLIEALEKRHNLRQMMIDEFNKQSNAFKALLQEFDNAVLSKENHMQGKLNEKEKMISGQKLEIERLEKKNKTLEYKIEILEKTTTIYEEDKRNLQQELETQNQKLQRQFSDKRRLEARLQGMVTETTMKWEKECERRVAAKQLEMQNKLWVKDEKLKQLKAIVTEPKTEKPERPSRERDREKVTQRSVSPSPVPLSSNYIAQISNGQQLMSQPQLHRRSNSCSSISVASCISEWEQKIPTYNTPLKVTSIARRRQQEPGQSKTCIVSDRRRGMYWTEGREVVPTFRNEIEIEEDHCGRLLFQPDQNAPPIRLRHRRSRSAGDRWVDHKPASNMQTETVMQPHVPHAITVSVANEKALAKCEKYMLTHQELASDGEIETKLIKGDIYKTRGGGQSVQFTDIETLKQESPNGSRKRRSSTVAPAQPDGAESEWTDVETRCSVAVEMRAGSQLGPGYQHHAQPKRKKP
The description is as above. As to conditions: Fig. 2. The test is classed as biochemical. On the procedure:
as §1

The target of test [2] is T5, His-tagged human MPP1 construct (Aa 1-533) (Homo sapiens, UniProt Q96Q89).
T5 construct: a His-tagged human MPP1 construct (Aa 1-533); His
T5 sequence (Q96Q89 1-533): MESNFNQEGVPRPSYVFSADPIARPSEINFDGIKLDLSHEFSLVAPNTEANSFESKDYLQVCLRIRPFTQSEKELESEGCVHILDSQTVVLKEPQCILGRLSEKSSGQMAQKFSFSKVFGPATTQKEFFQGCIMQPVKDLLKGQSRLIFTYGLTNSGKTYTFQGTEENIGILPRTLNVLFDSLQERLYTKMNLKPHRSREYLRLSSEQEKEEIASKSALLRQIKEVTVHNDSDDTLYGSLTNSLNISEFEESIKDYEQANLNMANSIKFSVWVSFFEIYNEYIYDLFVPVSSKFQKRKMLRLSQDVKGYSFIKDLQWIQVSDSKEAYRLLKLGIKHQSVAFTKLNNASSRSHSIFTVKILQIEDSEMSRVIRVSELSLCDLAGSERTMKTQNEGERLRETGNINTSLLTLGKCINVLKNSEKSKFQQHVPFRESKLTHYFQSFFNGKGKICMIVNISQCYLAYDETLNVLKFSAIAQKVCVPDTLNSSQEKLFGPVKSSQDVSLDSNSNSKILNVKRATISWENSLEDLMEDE
Briefly: Malachite-green based in vitro microtubule-stimulated ATPase assay (potency study). As to conditions: microtubule-stimulated ATPase activity, DMSO as solvent control, Fig. 1. The test is classed as biochemical. On the procedure: The 2-phenylquinoxaline derivatives were measured be means of a malachite-green based (Itaya K. and UI, M. (1966), A new micromethod for the colorimetric determination of inorganic phosphate; Clin. Chim. Acta, 14: 362 - 366) in vitro ATPase assay. For this assay the microtubule-stimulated ATPase activity of a His-tagged human MPP1 construct (Aa 1-533) in the presence of small molecules or DMSO as a solvent control were measured. These studies are done in 384-well plates in which individual compounds of a large compound collection are transferred into each well using a liquid handling robot.
The potency of 5-chloro-2-(3,4-dichlorophenyl)-7-(trifluoromethyl)quinoxaline as a representative example of the 2-phenylquinoxaline derivatives of general formula (I) was determined by measuring MPP1's microtubule-stimulated ATPase activity in vitro in the presence of 5-chloro-2-(3,4-dichlorophenyl)-7-(trifluoromethyl)-quinoxaline or DMSO as a solvent control. For these studies a malachite green assay which allows the quantification of free phosphate (Pi) in solution was used.

For another test, the system named is Hela S3 cells. Briefly: Cellular phenotype: binucleate phenotype. The following applies: Fig. 3. The test is classed as cell-based.
The subject of test [3] is cellular processes known to be independent of MPP1 function. In words: Specificity in vivo: effect on cellular processes independent of MPP1. The test is classed as cell-based. The following applies: golgi/lysosome localization, actin/microtubule cytoskeleton in interphase, protein synthesis, S to M-phase cell cycle progression, wound healing. An excerpt:
For the specificity in vivo studies, the effect of 5-chloro-2-(3,4-dichlorophenyl)-7-(trifluoromethyl)quinoxaline on cellular processes known to be independent of MPP1 function, e.g. golgi/lysosome localization, actin/microtubule cytoskeleton in interphase, protein synthesis, S to M-phase cell cycle progression, and wound healing was investigated.

A word on the EC50: it is the midpoint of the concentration-response curve. The term IC50 denotes the concentration at which inhibition is half-maximal. Lower therefore signals greater potency. `FC(F)(F)c1cc(Cl)c2ncc(-c3ccc(Cl)c(Cl)c3)nc2c1` [5-chloro-2-(3,4-dichlorophenyl)-7-(trifluoromethyl)quinoxaline]: in test [1], the EC50 is around 50 µM. For the same compound, the “effect on the in vitro ATPase activity of Mklp2” value on Mklp2 is “no significant effect”. The “effect on the in vitro ATPase activity of Kif4” value on Kif4 was “no significant effect”. At Eg5, the “effect on the in vitro ATPase activity of Eg5” value was “no significant effect”. Further, the “effect on the in vitro ATPase activity of Mklp1” value on Mklp1 is listed as “no significant effect”. The compound also displayed an IC50 in test [2] of around 40 µM. The “binucleate phenotype in Hela S3 cells” value in the test on Hela S3 cells is recorded as “induces a binucleate phenotype”. Also, the “effect on the tested cellular processes” value in test [3] was “no observable effect”.
